In ChEMBL document CHEMBL4346665, “Synthesis and evaluation of tetrahydroquinolin-2(1H)-one derivatives as novel anti-pancreatic cancer agents via targeting autophagy” (Eur J Med Chem, 2019) one finds inhibition data, which are given here for 40 molecules.

SMILES strings stand for the structures.

Assay [1] has as its system PANC-1. In words: Growth inhibition of human PANC1 cells in nutrient-deprived medium at 10 uM incubated for 24 hrs by MTT assay (reference value: 0.0 +/- 1.9%). In kind it is functional. As to conditions: PANC-1, 24 h. A general note: Tetrazolium assays rely on reduction of a dye to a coloured formazan, in cell work by metabolically active cells.
In assay [2] the test system is PANC-1. In words: Growth inhibition of human PANC1 cells in nutrient-rich medium at 10 uM incubated for 24 hrs by MTT assay (reference value: 0.0 +/- 3.8%). The following applies: PANC-1, 24 h. Format: functional.

As usually defined, the inhibition is the drop in the measured response relative to a control, in per cent. Consider `CC(C)=CCC/C(C)=C/CC1Cc2c(O)cc(=O)n(CCCO)c2CC1(C)C` (stereo not given), for which the values for the inhibition at 10 µM in assay [1] and in assay [2] were 28.7% and 0%, respectively.
As for `CC(C)=CCC1Cc2c(O)cc(=O)n(CCCO)c2CC1(C)C` (stereo not given), the inhibition at 10 µM was found to be 25.6% in assay [1] and 0% in assay [2].
With `COc1ccc(OCCCOc2cc(=O)n(CCCO)c3c2CC(CC=C(C)C)C(C)(C)C3)cc1` (stereo not given), the results for the inhibition at 10 µM in assay [1] and in assay [2] were 47.7% and 4.1%, respectively.
For the molecule `CC(C)=CCC1Cc2c(OCCCNS(=O)(=O)c3ccc([N+](=O)[O-])cc3)cc(=O)n(CCCO)c2CC1(C)C` (stereo not given), the inhibition at 10 µM turned out to be 47.7% in assay [1] and 17.3% in assay [2].
In the case of `CC(C)=CCC/C(C)=C/CC1Cc2c(OC(=O)Nc3cccc(F)c3)cc(=O)n(CCCO)c2CC1(C)C` (stereo not given), the inhibition at 10 µM in assay [1] worked out at 52.3%; in assay [2], 0%.
For `CC(C)=CCC/C(C)=C/COc1cc(=O)n(CCCO)c2c1CC(C/C=C(\C)CCC=C(C)C)C(C)(C)C2` (stereo not given) the same measures were 15.8% and 3.1%.
As for `CC(C)=CCC/C(C)=C/CC1Cc2c(OC(=O)Nc3ccc(Cl)c(Cl)c3)cc(=O)n(CCCO)c2CC1(C)C` (stereo not given), the inhibition at 10 µM amounted to 20% in assay [1] and 0% in assay [2].
For the molecule `CC(C)=CCC1Cc2c(OCc3ccccc3)cc(=O)n(CCCO)c2CC1(C)C` (stereo not given), the inhibition at 10 µM was -0.3% in assay [1] and 11.1% in assay [2].
Regarding `CC(C)=CCC1Cc2c(OCCCNS(=O)(=O)c3ccc(C(F)(F)F)cc3)cc(=O)n(CCCO)c2CC1(C)C` (stereo not given), the inhibition at 10 µM in assay [1] was determined as 29.6%; in assay [2], 0%.
For `COc1cccc(NC(=O)Oc2cc(=O)n(CCCO)c3c2CC(CC=C(C)C)C(C)(C)C3)c1` (stereo not given), the inhibition at 10 µM turned out to be 16.2% in assay [1] and 0% in assay [2].
As for `COc1ccc(NC(=O)Oc2cc(=O)n(CCCO)c3c2CC(CC=C(C)C)C(C)(C)C3)cc1` (stereo not given), the inhibition at 10 µM in assay [1] turned out to be 3.7%; in assay [2], 0%.
For the molecule `CC(C)=CCOc1cc(=O)n(CCCO)c2c1CC(CC=C(C)C)C(C)(C)C2` (stereo not given), the inhibition at 10 µM in assay [1] was 20.7%; in assay [2], 7.5%.
For `CC(C)=CCC1Cc2c(OCCCNC(=O)c3cccs3)cc(=O)n(CCCO)c2CC1(C)C` (stereo not given), the results for the inhibition at 10 µM in assay [1] and in assay [2] were 33.6% and 5.6%, respectively.
In the case of `CC(C)=CCC1Cc2c(OCCCNC(=O)c3ccco3)cc(=O)n(CCCO)c2CC1(C)C` (stereo not given), the values for the inhibition at 10 µM in assay [1] and in assay [2] were 2.1% and 4.3%, respectively.
Take `CC(C)=CCC/C(C)=C/CC1Cc2c(OC(=O)Nc3cccc(C(F)(F)F)c3)cc(=O)n(CCCO)c2CC1(C)C` (stereo not given): the inhibition at 10 µM is 44% in assay [1] and 6.7% in assay [2].
Take `CC(C)=CCC1Cc2c(OC(=O)Nc3cccc(F)c3)cc(=O)n(CCCO)c2CC1(C)C` (stereo not given): the inhibition at 10 µM in assay [1] came out at 66.1%; in assay [2] it was 0%.
On to `CC(C)=CCC1Cc2c(OC(=O)Nc3ccc(F)cc3F)cc(=O)n(CCCO)c2CC1(C)C` (stereo not given), for which the inhibition at 10 µM in assay [1] worked out at 69.7%; in assay [2] it was 0%.
Take `CC(C)=CCC/C(C)=C/CC1Cc2c(OCCCNS(=O)(=O)c3ccc(Br)cc3)cc(=O)n(CCCO)c2CC1(C)C` (stereo not given): the figures for the inhibition at 10 µM in assay [1] and in assay [2] were 15.2% and 0%, respectively.
As for `CC(C)=CCC/C(C)=C/CC1Cc2c(OCCCOc3ccc(Cl)cc3)cc(=O)n(CCCO)c2CC1(C)C` (stereo not given), the inhibition at 10 µM in assay [1] came out at 25.2%; in assay [2] it was 0%.
The matching figures for `CC(C)=CCC1Cc2c(OC(=O)Nc3ccccc3F)cc(=O)n(CCCO)c2CC1(C)C` (stereo not given): 52.3% and 0%.
For `CC(C)=CCC/C(C)=C/CC1Cc2c(OCCCNS(=O)(=O)c3ccc([N+](=O)[O-])cc3)cc(=O)n(CCCO)c2CC1(C)C` (stereo not given), the inhibition at 10 µM in assay [1] is 7.4%; in assay [2], 0%.
With `COc1ccc(C(=O)NCCCOc2cc(=O)n(CCCO)c3c2CC(CC=C(C)C)C(C)(C)C3)cc1` (stereo not given), the inhibition at 10 µM in assay [1] was 55.5%; in assay [2], 2.5%.
Turning to `CC(C)=CCC/C(C)=C/CC1Cc2c(OCCCNS(=O)(=O)c3ccc(Cl)cc3)cc(=O)n(CCCO)c2CC1(C)C` (stereo not given), the inhibition at 10 µM was found to be 14.5% in assay [1] and 16.1% in assay [2].
Regarding `CC(C)=CCC1Cc2c(OC(=O)Nc3cccc(C(F)(F)F)c3)cc(=O)n(CCCO)c2CC1(C)C` (stereo not given), the inhibition at 10 µM in assay [1] amounted to 54.3%; in assay [2] it was 0%.
For the molecule `CC(C)=CCC/C(C)=C/CC1Cc2c(OC(=O)Nc3ccc(F)c(F)c3)cc(=O)n(CCCO)c2CC1(C)C` (stereo not given), the inhibition at 10 µM is 43.7% in assay [1] and 4.8% in assay [2].
As for `CC(C)=CCC1Cc2c(OCCCOc3ccc([N+](=O)[O-])cc3)cc(=O)n(CCCO)c2CC1(C)C` (stereo not given), the figures for the inhibition at 10 µM in assay [1] and in assay [2] were 47.5% and 0%, respectively.
In the case of `CC(C)=CCC1Cc2c(OC(=O)Nc3ccc(Cl)cc3)cc(=O)n(CCCO)c2CC1(C)C` (stereo not given), the inhibition at 10 µM in assay [1] was found to be 49.8%; in assay [2], 0%.
Take `CC(C)=CCC1Cc2c(OCCCOc3ccc(Cl)cc3)cc(=O)n(CCCO)c2CC1(C)C` (stereo not given): the values for the inhibition at 10 µM in assay [1] and in assay [2] were 22.7% and 0%, respectively.
Turning to `CC(C)=CCC/C(C)=C/COc1cc(=O)n(CCCO)c2c1CC(CC=C(C)C)C(C)(C)C2` (stereo not given), the inhibition at 10 µM came out at 10.6% in assay [1] and 18.4% in assay [2].
For `CC(C)=CCC/C(C)=C/CC1Cc2c(OC(=O)Nc3ccc(F)cc3)cc(=O)n(CCCO)c2CC1(C)C` (stereo not given), the inhibition at 10 µM in assay [1] was 43.9%; in assay [2], 6.2%.
For `CC(C)=CCC/C(C)=C/CC1Cc2c(OCC=C(C)C)cc(=O)n(CCCO)c2CC1(C)C` (stereo not given) the same measures were 30.3% and 15.9%.
On to `CC(C)=CCC1Cc2c(OCCCNC(=O)c3ccc([N+](=O)[O-])cc3)cc(=O)n(CCCO)c2CC1(C)C` (stereo not given), for which the values for the inhibition at 10 µM in assay [1] and in assay [2] were 49.9% and 9.1%, respectively.
`COc1ccc(C(=O)NCCCOc2cc(=O)n(CCCO)c3c2CC(C/C=C(\C)CCC=C(C)C)C(C)(C)C3)cc1` (stereo not given): the inhibition at 10 µM was determined as 45.7% in assay [1] and 14.1% in assay [2].
In the case of `CC(C)=CCC/C(C)=C/CC1Cc2c(OC(=O)Nc3ccc(Cl)cc3)cc(=O)n(CCCO)c2CC1(C)C` (stereo not given), the figures for the inhibition at 10 µM in assay [1] and in assay [2] were 47.2% and 4.3%, respectively.
Regarding `CC(C)=CCC/C(C)=C/CC1Cc2c(OCc3ccccc3)cc(=O)n(CCCO)c2CC1(C)C` (stereo not given), the results for the inhibition at 10 µM in assay [1] and in assay [2] were 46.5% and 1.5%, respectively.
For the molecule `CC(C)=CCC/C(C)=C/CC1Cc2c(OCCCNS(=O)(=O)c3ccc(C(F)(F)F)cc3)cc(=O)n(CCCO)c2CC1(C)C` (stereo not given), the inhibition at 10 µM was 26.4% in assay [1] and 0% in assay [2].
Turning to `CC(C)=CCC/C(C)=C/CC1Cc2c(OCCCNC(=O)c3ccc([N+](=O)[O-])cc3)cc(=O)n(CCCO)c2CC1(C)C` (stereo not given), the values for the inhibition at 10 µM in assay [1] and in assay [2] were 16.8% and 6.5%, respectively.
The matching figures for `COc1cccc(NC(=O)Oc2cc(=O)n(CCCO)c3c2CC(C/C=C(\C)CCC=C(C)C)C(C)(C)C3)c1` (stereo not given): 47% and 11.3%.
`CC(C)=CCC1Cc2c(OC(=O)Nc3ccc(Cl)c(Cl)c3)cc(=O)n(CCCO)c2CC1(C)C` (stereo not given): the inhibition at 10 µM in assay [1] was determined as 61.4%; in assay [2], 1.8%.
The matching figures for `CC(C)=CCC1Cc2c(OCCCNS(=O)(=O)c3ccc(Br)cc3)cc(=O)n(CCCO)c2CC1(C)C` (stereo not given): 19.5% and 3.7%.
